Laboratory results published in US6123959A, “Aqueous composition comprising active ingredients for the de-pigmentation of the skin” (Univera Pharmaceuticals, Inc., priority 1998, dated 2000).
Like-named read-outs stand apart in the source and are kept apart here.

What was measured:
tyrosinase [1] = details: cited from earlier work; for mode of tyrosinase inhibition: Lineweaver Burk diagram
tyrosinase [2] = experiment: in vitro tyrosinase inhibition assay (L-Dopa conversion to dopachrome, absorption at 475 nm); format: biochemical; details: pH 6.8
Description: An in vitro tyrosinase inhibition assay was carried out using a modification of the procedure described by Pomerantz […] J. Biol. Chem. 238:2351-2357. According to this method, the conversion of L-Dopa, a substrate of tyrosinase, into dopaquinone and then dopachrome is followed by monitoring absorption at 475 nm in a spectrophotometer. As the colored substance dopachrome absorbs light having a wavelength of 475 nm, a quantitative measurement of the time-related conversion and thus the activity of tyrosinase can be made.
Each sample was prepared in a 50 mM potassium phosphate buffer which had been adjusted to pH 6.8, and stabilized by the addition of 10% DMSO. Tyrosinase (48 u, "u" represents the activity units of an enzyme, measured in mM substratum conversion per minute) was added to each sample. A double assessment was carried out for each inhibitor, using two different starting concentrations of L-Dopa: 0.4 mM and 0.2 mM. Controls were also run using the same concentrations of uninhibited tyrosinase to serve as the neutral value. In the control samples the volume of inhibitor was replaced with 50 mM potassium phosphate buffer. The time-related difference in absorption, and thus the conversion of L-Dopa, was followed for a period of two minutes.
The conversion kinetics of the tyrosinase was measured upon addition of the following concentrations of inhibitor: arbutin (0.9 mM); aloesin (0.0192 mM; 0.0385 mM and 0.0769 mM) and with the respective combination of both of the inhibitors. Enzyme inhibition was determined from the difference between the inhibited and the uninhibited kinetics. It is worth noting that the compositions examined in this example contain no liposomes, as the penetration ability and bio-availability are of no significance in an in vitro test. The purpose of these in vitro studies was to determine the efficacy of the inhibitors (arbutin and aloesin) individually and combinations thereof.

skin = details: cited from earlier work; for quantity required to achieve a similar effect, compared to hydroquinone: relative to quantity of hydroquinone used
tyrosinase [3] = details: cited from earlier work
synthesis of melanin = details: cited from earlier work
tyrosinase [4] = experiment: inhibitory effect on tyrosinase of octylaloesin compared to aloesin; format: biochemical

COc1cc(/C=C/C(=O)O[C@@H]2[C@@H](O)[C@H](O)[C@@H](CO)O[C@H]2c2c(O)cc(C)c3c(=O)cc(CC(C)=O)oc23)ccc1O [2"-O-feruloylaloesin]
mode of tyrosinase inhibition (tyrosinase [1]): non-competitive inhibitors
inhibition of tyrosinase (tyrosinase [1]): effective inhibitors of tyrosinase

CC(=O)Cc1cc(=O)c2c(C)cc(O)c([C@@H]3O[C@H](CO)[C@@H](O)[C@H](O)[C@H]3O)c2o1 [aloesin]
% Inhibition Tyrosinase (tyrosinase [2]; aloesin 0.0192 mM): 20%
% Inhibition Tyrosinase (tyrosinase [2]; aloesin 0.0385 mM): 32%
% Inhibition Tyrosinase (tyrosinase [2]; aloesin 0.0769 mM): 46%
mode of tyrosinase inhibition (tyrosinase [1]): non-competitive inhibitors
inhibition of tyrosinase (tyrosinase [1]): effective inhibitors of tyrosinase

OC[C@H]1O[C@@H](Oc2ccc(O)cc2)[C@H](O)[C@@H](O)[C@@H]1O [arbutin]
% Inhibition Tyrosinase (tyrosinase [2]; arbutin 0.9 mM): 29%
quantity required to achieve a similar effect, compared to hydroquinone (skin): over 100 times
mode of tyrosinase inhibition (tyrosinase [3]): competitive inhibitors

O=C1O[C@H]([C@@H](O)CO)C(O)=C1O [ascorbic acid]
quantity required to achieve a similar effect, compared to hydroquinone (skin): 17 times
mode of tyrosinase inhibition (tyrosinase [3]): competitive inhibitors

Oc1ccc(O)cc1 [hydroquinone]
side effects (skin; applied over long periods of time): serious side effects
photosensitivity of the skin (skin; exposed to UV light): increased photosensitivity
de-pigmentation (persistence) (skin; in vivo): permanent de-pigmentation

O=c1cc(CO)occ1O [kojic acid]
mode of tyrosinase inhibition (tyrosinase [3]): competitive inhibitors

CC/C=C\C/C=C\C/C=C\CCCCCCCC(=O)O [linolenic acid]
inhibition of the synthesis of melanin (synthesis of melanin): inhibit the synthesis of melanin

CCCCCCCCOc1cc(C)c2c(=O)cc(CC(C)=O)oc2c1[C@@H]1O[C@H](CO)[C@@H](O)[C@H](O)[C@H]1O [octylaloesin]
inhibitory effect on tyrosinase compared to aloesin (tyrosinase [4]): significantly higher inhibitory effect on tyrosinase
